{
  "source": "patent US8710043B2",
  "about": "“TRPM8 antagonists and their use in treatments” (Amgen Inc., priority 2011, dated 2014)",
  "data": [
    {"target": "T1, human TRPM8 (Homo sapiens, UniProt Q7Z2W7)", "T1 construct": "expressed in transfected cells; host or cells: Chinese hamster ovary (CHO) cells, T-REx tetracycline-inducible system, co-transfected with aequorin", "T1 sequence (Q7Z2W7 whole entry)": "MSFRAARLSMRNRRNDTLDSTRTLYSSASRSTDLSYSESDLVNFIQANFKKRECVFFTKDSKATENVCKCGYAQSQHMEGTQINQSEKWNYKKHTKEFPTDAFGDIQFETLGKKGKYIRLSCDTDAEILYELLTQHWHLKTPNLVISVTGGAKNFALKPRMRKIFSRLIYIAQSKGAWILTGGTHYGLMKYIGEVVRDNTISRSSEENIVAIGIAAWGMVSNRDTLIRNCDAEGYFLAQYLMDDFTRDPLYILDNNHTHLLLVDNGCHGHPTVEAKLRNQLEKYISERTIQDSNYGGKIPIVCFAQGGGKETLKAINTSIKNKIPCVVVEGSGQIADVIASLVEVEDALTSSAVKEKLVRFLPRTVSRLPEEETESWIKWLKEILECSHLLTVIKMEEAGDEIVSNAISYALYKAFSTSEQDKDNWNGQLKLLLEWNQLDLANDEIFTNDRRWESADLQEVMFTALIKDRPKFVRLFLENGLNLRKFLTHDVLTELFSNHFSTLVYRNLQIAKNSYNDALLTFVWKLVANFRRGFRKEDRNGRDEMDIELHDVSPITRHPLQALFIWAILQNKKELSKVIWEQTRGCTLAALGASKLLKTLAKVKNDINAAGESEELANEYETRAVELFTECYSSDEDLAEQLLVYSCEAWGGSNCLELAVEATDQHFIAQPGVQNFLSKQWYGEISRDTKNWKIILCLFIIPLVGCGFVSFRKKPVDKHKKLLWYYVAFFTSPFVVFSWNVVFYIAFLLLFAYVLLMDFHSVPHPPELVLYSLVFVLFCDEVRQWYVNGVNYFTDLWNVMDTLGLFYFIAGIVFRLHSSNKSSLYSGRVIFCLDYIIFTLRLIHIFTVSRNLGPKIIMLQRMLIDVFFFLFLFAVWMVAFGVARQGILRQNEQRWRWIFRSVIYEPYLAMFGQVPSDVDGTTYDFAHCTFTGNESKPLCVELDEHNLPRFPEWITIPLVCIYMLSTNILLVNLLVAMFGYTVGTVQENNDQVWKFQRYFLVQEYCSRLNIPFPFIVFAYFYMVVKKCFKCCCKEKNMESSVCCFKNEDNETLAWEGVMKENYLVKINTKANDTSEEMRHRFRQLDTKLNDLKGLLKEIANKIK", "test": "Luminescence readout assay for measuring intracellular calcium, icilin activation", "type": "cell-based", "settings": "CHO cells expressing human TRPM8, aequorin luminescence, 1 μM icilin activation; read-out: hTRPM8 IC50", "in_short": "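The read-out was luminescence reporting intracellular calcium, recorded by a CCD-based luminometer. Compounds were preincubated for 2.5 min before agonist challenge with 1 μM icilin. Human TRPM8 was expressed in a stable T-REx CHO line, induced with 0.5 μg/mL tetracycline the day before.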", "units": {"IC50": "nM"}, "values": [
      {"compound": "COc1ccc([C@H](NC(=O)c2ccc3cccnc3c2)c2ncccc2C(F)(F)F)cc1F", "note": "[Example 25, (S)-N-((3-fluoro-4-methoxyphenyl)(3-(trifluoromethyl)pyridin-2-yl)methyl)quinoline-7-carboxamide]", "IC50": 36.8},
      {"compound": "O=C(N[C@@H](c1ccc(C(F)(F)F)cc1)c1ncccc1F)c1ccc(-c2nc(=O)o[nH]2)cc1", "note": "[Example 315, (S)-N-((3-fluoropyridin-2-yl)(4-(trifluoromethyl)phenyl)methyl)-4-(5-oxo-2,5-dihydro-1,2,4-oxadiazol-3-yl)benzamide]", "IC50": 36.3},
      {"compound": "Nc1ccc(C(=O)N[C@@H](c2ccc(C(F)(F)F)cc2)c2ncccc2C(F)(F)F)cn1", "note": "[Example 134, (S)-6-amino-N-((4-(trifluoromethyl)phenyl)(3-(trifluoromethyl)pyridin-2-yl)methyl)nicotinamide]", "IC50": 31},
      {"compound": "COc1cnccc1C(=O)N[C@@H](c1ccc(C(F)(F)F)cc1)c1ncccc1C(F)(F)F", "note": "[Example 48, (S)-3-methoxy-N-((4-(trifluoromethyl)phenyl)(3-(trifluoromethyl)pyridin-2-yl)methyl)isonicotinamide]", "IC50": 21.5},
      {"compound": "O=C(N[C@@H](c1ccc(C(F)(F)F)cc1)c1ncccc1F)c1ccc(O)cn1", "note": "[Example 173, (S)-N-((3-fluoropyridin-2-yl)(4-(trifluoromethyl)phenyl)methyl)-5-hydroxypicolinamide]", "IC50": 15.3},
      {"compound": "O=C(N[C@@H](c1ccc(C(F)(F)F)cc1)c1ccccn1)c1ccc2oc(=O)[nH]c2c1", "note": "[Example 361, (S)-2-oxo-N-(pyridin-2-yl(4-(trifluoromethyl)phenyl)methyl)-2,3-dihydrobenzo[d]oxazole-5-carboxamide]", "IC50": 5.8},
      {"compound": "CCc1cccnc1[C@@H](NC(=O)c1ccc(=O)[nH]c1)c1ccc(C(F)(F)F)cc1", "note": "[Example 430, (S)—N-((3-Ethylpyridin-2-yl)(4-(trifluoromethyl)phenyl)methyl)-6-oxo-1,6-dihydropyridine-3-carboxamide]", "IC50": 12.4},
      {"compound": "N#Cc1ccc(C(=O)N[C@@H](c2ccc(C(F)(F)F)cc2)c2ncccc2C(F)(F)F)cn1", "note": "[Example 206, (S)-6-cyano-N-((4-(trifluoromethyl)phenyl)(3-(trifluoromethyl)pyridin-2-yl)methyl)nicotinamide]", "IC50": 67.5},
      {"compound": "Cn1cc(C(=O)N[C@@H](c2ccc(OC(F)(F)F)cc2)c2ncccc2F)ccc1=O", "note": "[Example 252, (S)-N-((3-fluoropyridin-2-yl)(4-(trifluoromethoxy)phenyl)methyl)-1-methyl-6-oxo-1,6-dihydropyridine-3-carboxamide 2,2,2-trifluoroacetate]", "IC50": 24.7},
      {"compound": "O=C(NC(c1cccc(F)c1)c1ccc(OC(F)(F)F)c(F)c1)c1ccc(=O)[nH]c1", "note": "(stereo not shown) [Example 417, N-((3-fluoro-4-(trifluoromethoxy)phenyl)(3-fluorophenyl)methyl)-6-oxo-1,6-dihydropyridine-3-carboxamide]", "IC50": 83},
      {"compound": "Cn1cc(C(=O)N[C@@H](c2ccc(OC(F)(F)F)c(F)c2)c2ccccn2)ccc1=O", "note": "[Example 294, (S)-N-((3-fluoro-4-(trifluoromethoxy)phenyl)(pyridin-2-yl)methyl)-1-methyl-6-oxo-1,6-dihydropyridine-3-carboxamide]", "IC50": 14.5},
      {"compound": "Cc1cccnc1[C@@H](NC(=O)c1ccc(=O)[nH]c1)c1ccc(C(F)(F)F)cc1", "note": "[Example 82, (S)-N-((3-methylpyridin-2-yl)(4-(trifluoromethyl)phenyl)methyl)-6-oxo-1,6-dihydropyridine-3-carboxamide 2,2,2-trifluoroacetate]", "IC50": 17.7},
      {"compound": "O=C(N[C@@H](c1ccc(C(F)(F)F)cc1)c1ncccc1F)c1ccccn1", "note": "[Example 194, (S)-N-((3-fluoropyridin-2-yl)(4-(trifluoromethyl)phenyl)methyl)picolinamide]", "IC50": 75.6},
      {"compound": "O=C(N[C@@H](c1ccc(C(F)(F)F)cc1)c1ncccc1F)c1ccc2nccc(Cl)c2c1", "note": "[Example 113, (S)-4-chloro-N-((3-fluoropyridin-2-yl)(4-(trifluoromethyl)phenyl)methyl)quinoline-6-carboxamide 2,2,2-trifluoroacetate]", "IC50": 31.1},
      {"compound": "CC(=O)Nc1ccc(C(=O)N[C@@H](c2ccc(OC(F)(F)F)c(F)c2)c2ncccc2F)cc1O", "note": "[Example 390, (S)-4-acetamido-N-((3-fluoro-4-(trifluoromethoxy)phenyl)(3-fluoropyridin-2-yl)methyl)-3-hydroxybenzamide]", "IC50": 136},
      {"compound": "Cc1ccnc(C(NC(=O)c2ccc(=O)[nH]c2)c2ccc(OC(F)(F)F)c(F)c2)c1", "note": "(stereo not shown) [Example 423, N-((3-fluoro-4-(trifluoromethoxy)phenyl)(4-methylpyridin-2-yl)methyl)-6-oxo-1,6-dihydropyridine-3-carboxamide]", "IC50": 137},
      {"compound": "O=C(N[C@@H](c1ccc(OC(F)(F)F)c(F)c1)c1ncccc1F)c1ccc(=O)n(C(F)F)c1", "note": "[Example 399, (S)-1-(difluoromethyl)-N-((3-fluoro-4-(trifluoromethoxy)phenyl)(3-fluoropyridin-2-yl)methyl)-6-oxo-1,6-dihydropyridine-3-carboxamide]", "IC50": 16.5},
      {"compound": "O=C(N[C@@H](c1cc(F)cc(F)c1)c1ncccc1F)c1ccc(=O)[nH]c1", "note": "[Example 329, (S)-N-((3,5-difluorophenyl)(3-fluoropyridin-2-yl)methyl)-6-oxo-1,6-dihydropyridine-3-carboxamide]", "IC50": 841},
      {"compound": "O=C(N[C@@H](c1ccc(C(F)(F)F)cc1)c1ccccn1)c1ccc(=O)[nH]c1", "note": "[Example 201, (S)-6-oxo-N-(pyridin-2-yl(4-(trifluoromethyl)phenyl)methyl)-1,6-dihydropyridine-3-carboxamide 2,2,2-trifluoroacetate]", "IC50": 29.3},
      {"compound": "O=C(N[C@@H](c1ccc2ncccc2c1)c1ncccc1C(F)(F)F)c1ccc2cccnc2c1", "note": "[Example 22, (S)-N-(quinolin-6-yl(3-(trifluoromethyl)pyridin-2-yl)methyl)quinoline-7-carboxamide]", "IC50": 418},
      {"compound": "O=C(N[C@@H](c1ccc(OC(F)(F)F)c(F)c1)c1ncccc1F)c1ccc(=O)n(C[C@@H](O)C(F)(F)F)c1", "note": "[Example 409, N-((S)-(3-fluoro-4-(trifluoromethoxy)phenyl)(3-fluoropyridin-2-yl)methyl)-6-oxo-1-((R)-3,3,3-trifluoro-2-hydroxypropyl)-1,6-dihydropyridine-3-carboxamide]", "IC50": 89.2},
      {"compound": "O=C(N[C@@H](c1ccc(C(F)(F)F)cc1)c1ncccc1F)c1ccc2[nH]cnc2c1", "note": "[Example 392, (S)-N-((3-fluoropyridin-2-yl)(4-(trifluoromethyl)phenyl)methyl)-1H-benzo[d]imidazole-5-carboxamide]", "IC50": 7.6},
      {"compound": "COn1cc(C(=O)N[C@@H](c2ccc(C(F)(F)F)cc2)c2ncccc2F)ccc1=O", "note": "[Example 369, (S)-N-((3-fluoropyridin-2-yl)(4-(trifluoromethyl)phenyl)methyl)-1-methoxy-6-oxo-1,6-dihydropyridine-3-carboxamide]", "IC50": 3710},
      {"compound": "O=C(N[C@@H](c1ccc(C(F)(F)F)cc1)c1ncccc1C(F)(F)F)c1cc2ccccc2s1", "note": "[Example 222, (S)-N-((4-(trifluoromethyl)phenyl)(3-(trifluoromethyl)pyridin-2-yl)methyl)benzo[b]thiophene-2-carboxamide]", "IC50": 119},
      {"compound": "COc1ncccc1C(=O)N[C@@H](c1ccc(C(F)(F)F)cc1)c1ncccc1F", "note": "[Example 47, (S)-N-((3-fluoropyridin-2-yl)(4-(trifluoromethyl)phenyl)methyl)-2-methoxynicotinamide]", "IC50": 20.1}
    ]}
  ]
}
